Measured values: PubChem BioAssay AID602321 (The Scripps Research Institute Molecular Screening Center, 2012)
Active and inactive are the calls of the source. How the calls were made is not given here.

Experiments:
Experiment in all cases: ABPP selectivity among brain hydrolases, two doses – biochemical, gel-based competitive ABPP, mouse brain membrane, set 3, selectivity assay for DAGLb inhibitor project, late-stage follow-up (AID 602321)
[1] = target: Acyl-protein thioesterase 2 (Mus musculus) (UniProt Q9WTL7); conditions: gel-based competitive ABPP fluorescence, stronger effect = higher value
Sequence of Acyl-protein thioesterase 2 (Mus musculus) (Q9WTL7 whole entry, looked up): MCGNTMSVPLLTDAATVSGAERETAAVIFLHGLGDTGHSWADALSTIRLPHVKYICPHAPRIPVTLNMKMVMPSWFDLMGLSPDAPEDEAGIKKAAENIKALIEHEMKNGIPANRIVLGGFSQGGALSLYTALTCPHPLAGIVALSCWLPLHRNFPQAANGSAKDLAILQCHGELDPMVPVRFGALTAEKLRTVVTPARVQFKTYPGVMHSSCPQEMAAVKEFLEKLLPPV

[2] = target: Monoacylglycerol lipase ABHD6 (Mus musculus) (UniProt Q8R2Y0); conditions: gel-based competitive ABPP fluorescence, stronger effect = higher value
Sequence of Monoacylglycerol lipase ABHD6 (Mus musculus) (Q8R2Y0 whole entry, looked up): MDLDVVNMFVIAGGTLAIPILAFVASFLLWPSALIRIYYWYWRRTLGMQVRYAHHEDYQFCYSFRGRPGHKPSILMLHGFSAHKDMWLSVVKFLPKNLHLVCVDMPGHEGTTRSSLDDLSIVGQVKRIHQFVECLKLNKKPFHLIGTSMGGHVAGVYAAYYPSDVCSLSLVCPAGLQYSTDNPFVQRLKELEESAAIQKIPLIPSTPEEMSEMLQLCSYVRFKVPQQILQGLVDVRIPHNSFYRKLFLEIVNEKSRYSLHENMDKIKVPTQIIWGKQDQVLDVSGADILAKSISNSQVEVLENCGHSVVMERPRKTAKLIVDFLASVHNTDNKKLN

[3] = test system: FAAH; conditions: gel-based competitive ABPP fluorescence, stronger effect = higher value
[4] = test system: LYPLA1; conditions: gel-based competitive ABPP fluorescence, stronger effect = higher value
[5] = test system: APEH; conditions: gel-based competitive ABPP fluorescence, APEH, stronger effect = higher value
[6] = target: Acyl-protein thioesterase 1 (Mus musculus) + Monoacylglycerol lipase ABHD6 (Mus musculus) + Acyl-protein thioesterase 2 (Mus musculus) (UniProt P97823+Q8R2Y0+Q9WTL7); conditions: gel-based competitive ABPP fluorescence
Sequence of Acyl-protein thioesterase 1 (Mus musculus) + Monoacylglycerol lipase ABHD6 (Mus musculus) + Acyl-protein thioesterase 2 (Mus musculus) (UniProt P97823+Q8R2Y0+Q9WTL7) (P97823 whole entry, looked up): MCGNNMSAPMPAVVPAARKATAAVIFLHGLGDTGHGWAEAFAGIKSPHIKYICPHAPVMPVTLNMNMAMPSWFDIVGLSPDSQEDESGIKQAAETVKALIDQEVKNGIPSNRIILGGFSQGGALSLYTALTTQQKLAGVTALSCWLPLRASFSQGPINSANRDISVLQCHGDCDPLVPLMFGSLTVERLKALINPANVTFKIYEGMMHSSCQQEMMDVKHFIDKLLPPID
Sequence of Acyl-protein thioesterase 1 (Mus musculus) + Monoacylglycerol lipase ABHD6 (Mus musculus) + Acyl-protein thioesterase 2 (Mus musculus) (UniProt P97823+Q8R2Y0+Q9WTL7) (Q8R2Y0 whole entry, looked up): as the sequence (Q8R2Y0 whole entry, looked up) above
Sequence of Acyl-protein thioesterase 1 (Mus musculus) + Monoacylglycerol lipase ABHD6 (Mus musculus) + Acyl-protein thioesterase 2 (Mus musculus) (UniProt P97823+Q8R2Y0+Q9WTL7) (Q9WTL7 whole entry, looked up): as the sequence (Q9WTL7 whole entry, looked up) above

[7] = test system: Acyl-protein thioesterase 1 (Mus musculus) + Monoacylglycerol lipase ABHD6 (Mus musculus) + Acyl-protein thioesterase 2 (Mus musculus); conditions: gel-based competitive ABPP fluorescence

inhibition ([1]; LYPLA2, at 10 µM) | inhibition ([1]; LYPLA2, inhibition, at 1 µM) [%] | inhibition ([2]; at 10 µM) [%] | inhibition ([2]; inhibition, at 1 µM) [%] | inhibition ([3]; at 10 µM) | inhibition ([3]; inhibition, at 1 µM) [%] | inhibition ([4]; at 10 µM) | inhibition ([4]; inhibition, at 1 µM) [%] | inhibition ([5]; at 10 µM) | inhibition ([5]; inhibition, at 1 µM) [%] | outcome [6] | outcome [7] | SMILES
90% | 15 | 98 | 98 | 25% (inactive) | 10 | 90% | 15 | 25% (inactive) | 0 |  |  | O=C(c1ccc(-c2ccc(-c3cn(C(=O)N4CCCCC4c4ccccc4)nn3)cc2)cc1)N1CCCCC1 (stereo unspecified)
100% | 20 | 98 | 98 | 98% | 15 | 100% | 20 | 45% (inactive) | 0 |  |  | O=C(N1CCCCC1c1ccccc1)n1cc(-c2ccc(-c3ccccc3CO)cc2)nn1 (stereo unspecified)
25% (inactive) | 0 | 98 | 98 | 95% | 15 | 25% (inactive) | 0 | 0% (inactive) | 0 |  |  | O=C(O)c1cccc(-c2ccc(-c3cn(C(=O)N4CCCCC4CCc4ccccc4)nn3)cc2)c1 (stereo unspecified)
90% | 10 | 98 | 98 | 90% | 0 | 90% | 10 | 25% (inactive) | 0 |  |  | O=C(N1CCCCC1c1ccccc1)n1cc(-c2ccc(-c3ccc(CO)cc3)cc2)nn1 (stereo unspecified)
90% | 10 | 98 | 98 | 95% | 10 | 90% | 10 | 25% (inactive) | 0 |  |  | NC(=O)c1ccc(-c2ccc(-c3cn(C(=O)N4CCCCC4c4ccccc4)nn3)cc2)cc1 (stereo unspecified)
 |  |  |  |  |  | 15% (inactive) | 0 |  |  | active | inactive | O=C(O)c1cccc(-c2ccc(-c3cn(C(=O)N4CCCCC4Cc4ccccc4)nn3)cc2)c1 (stereo unspecified)
 |  |  |  |  |  | 98% | 20 |  |  |  | inactive | O=C(c1cccc(-c2ccc(-c3cn(C(=O)N4CCCCC4c4ccccc4)nn3)cc2)c1)N1CCCCC1 (stereo unspecified)
15% (inactive) | 0 | 98 | 90 | 35% (inactive) | 0 | 15% (inactive) | 0 | 0% (inactive) | 0 |  |  | O=C(O)c1ccc(-c2ccc(-c3cn(C(=O)N4CCCCC4CCc4ccccc4)nn3)cc2)cc1 (stereo unspecified)
0% (inactive) | 0 | 98 | 98 | 25% (inactive) | 0 | 0% (inactive) | 0 | 0% (inactive) | 0 |  |  | O=C(N1CCCCC1Cc1ccccc1)n1cc(-c2ccc(-c3cccc(CO)c3)cc2)nn1 (stereo unspecified)
 |  |  |  |  |  | 95% | 15 |  |  | active | inactive | O=C(N1CCCCC1c1ccccc1)n1cc(-c2ccc(-c3cccc(CO)c3)cc2)nn1 (stereo unspecified)
0% (inactive) | 0 | 98 | 98 | 0% (inactive) | 0 | 0% (inactive) | 0 | 0% (inactive) | 0 |  |  | O=C(c1ccc(-c2ccc(-c3cn(C(=O)N4CCCCC4Cc4ccccc4)nn3)cc2)cc1)N1CCCCC1 (stereo unspecified)
100% | 85 | 98 | 98 | 90% | 5 | 100% | 85 | 98% | 80 |  |  | O=C(O)c1cccc(-c2ccc(-c3cn(C(=O)N4CCCCC4c4ccccc4)nn3)cc2)c1 (stereo unspecified)
